Measured values as given in patent US7671181B2, “Polynucleotides encoding coccidian parasite casein kinase I, a chemotherapeutic target for antiprotozoal agents” (Merck Sharp & Dohme Corp., priority 2004, dated 2010).
Where two headings read alike, the source gives them in different places.

Experiments:
[1] = test system: T. gondii tachyzoites; assay: [3H]-uracil uptake assay of parasite growth inhibition in infected HFF cell monolayers; format: cell-based, Toxoplasma gondii; settings: for activity against cultured T. gondii parasites: uracil uptake / whole cell assay; for IC50: read-out: IC50 against T. gondii in the uracil uptake assay
Source text: (§1) Host cells and parasite cultures—RH strain or RH ΔHXGPRT strain tachyzoites of T. gondii were maintained by serial passage in confluent monolayers of human foreskin fibroblasts (“HFF”) as described (Roos, D. S. et al., 1994, Methods Cell Biol. 45:27-63). A modified [^3H]-uracil uptake assay (Pfefferkorn, E. R. and Pfefferkorn, L. C., 1977, J. Protozool. 24:449-453) adapted for use in 96-well scintillation plates (Cytostar-T, Amersham; Piscataway, N.J.) was used to measure parasite growth inhibition. Each well, previously seeded with HFF cells, was inoculated with T. gondii tachyzoites (2×10^4) in 200 μl of growth media containing 2 μCi [5,6]-^3H-uracil (Perkin-Elmer NEN; Boston, Mass.) and serially diluted compound. Following incubation at 37° C. for 36-48 hours, tritium-incorporation into host cell monolayers was directly counted in a microplate scintillation counter (MicroBeta, PerkinElmer-Wallac).

[2] = test system: T. gondii; assay: Parasite growth inhibition, modified [3H]-uracil uptake assay in infected HFF cell monolayers; format: cell-based, Toxoplasma gondii; settings: for activity against T. gondii in the uracil uptake (whole cell) assay: cultured parasites, in words
Source text: as §1
The only other CDK inhibitor with sub-μM activity against T. gondii was indirubin-3′-monoxime, which gave an IC50 value of 500 nM.

[3] = molecular target: T1, TgCKIα (Toxoplasma gondii, UniProt Q6QNM1); assay: Casein kinase assay, TgCKIα (recombinant FLAGTgCKIα or partially purified native); format: biochemical; design: other: recombinant or native forms of TgCKIα
Protocol: (§2) Protein kinase assays—Casein kinase activity was assayed essentially as described (Donald, R. G. K. et al., 2002, supra) using 96-well phosphocellulose plates (MAPH-NOB, Millipore; Billerica, Mass.) to capture ^33P-phosphorylated peptide or casein substrates. Kinase reactions were carried out in 40 μl volumes containing 25 mM Hepes, pH 7.4, 10 mM MgCl2, 20 mM β-glycerophosphate, 1 mM DTT, 250 μM substrate, 1 mg/mL BSA, 2 μM ATP, and 0.01 μM [γ-^33P]ATP (Perkin-Elmer, 3000 Ci/mmol). […] Casein (5% solution), partially dephosphorylated α-casein and β-casein were obtained from Sigma.
(§3) A variety of commercially available peptide substrates were evaluated. From Calbiochem (San Diego, Calif.): CKI substrate (RRKDLHDDEEDEAMSITA; SEQ ID NO:13); CKII substrate (RRADDSDDDDD; SEQ ID NO:14); Syntide-2 substrate (PLARTLSVAGLPGKK; SEQ ID NO:15); CaM kinase II substrate (281-291) (MHKNETVECLK; SEQ ID NO:16). From Promega: CKI substrate (DDDEESITRR; SEQ ID NO:17) and kemptide (LRRASLG; SEQ ID NO:18). From New England Biolabs (Beverly, Mass.): CKI phosphopeptide substrate (KRRRALS(p)VASLPGL; SEQ ID NO:19), and CKII substrate (RRREEETEEE; SEQ ID NO:20). PKG assays were performed with kemptide as substrate and 10 μM cGMP. CDPK was assayed with Syntide-2 substrate and in the presence of 100 μM CaCl2.
Purification of recombinant CKI enzymes—E. coli strain BL21 Origami™ (Novagen) was transformed with FLAGTgCKIα and FLAGTgCKIβ expression vectors, and colonies were expanded into 250 mL LB cultures grown at 37° C. […] Protein was measured with a micro-BCA reagent (Pierce) following a TCA-sodium deoxycholate step to remove residual FLAG peptide (Brown et al., 1989, Anal. Biochem. 180:136-139). […]
(§4) Preparations of FLAGTgCKIα and FLAGTgCKIβ were purified further on a SMART system FPLC 0.1 mL MonoQ anion exchange column (Pharmacia; New York, N.Y.) equilibrated in buffer A (50 mM Hepes, pH 7.4, 10% glycerol, 1 mM DTT) at room temperature. […] A linear salt gradient was applied (0-500 mM in 3 mL at 100 μl/min) and 100 μl fractions were collected and analyzed by SDS-PAGE and for CKI activity. […]

[4] = molecular target: EtCKIα (Eimeria tenella, UniProt Q6QNL9); assay: Casein kinase assay, partially purified native EtCKIα; format: biochemical; settings: native enzyme
Protocol: (§5) Protein kinase assays—Casein kinase activity was assayed essentially as described (Donald, R. G. K. et al., 2002, supra) using 96-well phosphocellulose plates (MAPH-NOB, Millipore; Billerica, Mass.) to capture ^33P-phosphorylated peptide or casein substrates. Kinase reactions were carried out in 40 μl volumes containing 25 mM Hepes, pH 7.4, 10 mM MgCl2, 20 mM β-glycerophosphate, 1 mM DTT, 250 μM substrate, 1 mg/mL BSA, 2 μM ATP, and 0.01 μM [γ-^33P]ATP (Perkin-Elmer, 3000 Ci/mmol). The reactions were initiated by the addition of enzyme and incubated at room temperature for 60 min. Casein (5% solution), partially dephosphorylated α-casein and β-casein were obtained from Sigma.
as §3
Partial purification of native EtCKIα—The inability to stably express recombinant EtCKIα in T. gondii provided impetus to purify native enzyme from E. tenella parasites (slide 5). A lysate was prepared from 2×10^10 unsporulated oocysts using previously published procedures (Gurnett, A. M. et al., 2002, supra). The first two steps of the purification scheme used were essentially scaled-up from the method described for the purification of native TgCKIα. The lysate was subjected to preparative HiLoad Q anion-exchange chromatography and fractions eluted with a NaCl gradient (0-1 M NaCl). […]

[5] = molecular target: TgCKIβ (Toxoplasma gondii, UniProt Q6QNM0); assay: Casein kinase assay, recombinant FLAGTgCKIβ; format: biochemical; settings: substrate titration, 2 μM ATP; for Km: read-out: Km(app), FLAGTgCKIβ
Protocol: as §2, §3
(§6) Purification of recombinant CKI enzymes—E. coli strain BL21 Origami™ (Novagen) was transformed with FLAGTgCKIα and FLAGTgCKIβ expression vectors, and colonies were expanded into 250 mL LB cultures grown at 37° C. Expression was induced with 1 mM IPTG once cultures had reached an OD600nm of 0.3-0.5, and the transformed bacteria were harvested 4-6 hours later. Cell pellets were resuspended in 15 mL of lysis buffer containing protease inhibitors and lysates prepared as described by the supplier (Bugbuster™ reagents, Novagen). The concentration of NaCl in the lysate was adjusted to 0.5 M, and 0.5 mL of FLAG-agarose beads were added (Sigma). The mixture was allowed to rock in a Nutator mixer (Becton-Dickinson; San Jose, Calif.) for 2 hours at 4° C. The slurry was then poured into an empty column and the matrix washed with 50 mL of wash buffer (50 mM Tris-HCl, pH 7.4, 0.5M NaCl, 10% glycerol, 1 mM DTT, 1 mM EDTA). Enzyme was eluted with 5 mL of 0.4 mg/mL FLAG peptide (Sigma) in NaCl-free wash buffer and concentrated with a centrifuge filtration unit (Amicon Ultra®, 10 kDa cut-off, Millipore). Protein was measured with a micro-BCA reagent (Pierce) following a TCA-sodium deoxycholate step to remove residual FLAG peptide (Brown et al., 1989, Anal. Biochem. 180:136-139). Using this procedure, and SDS-PAGE analysis, the yield of FLAGTgCKIβ was estimated as ˜200 μg of enzyme with >90% purity. Purification of FLAGTgCKIα was much less efficient with only about 1 μg of ˜10% pure enzyme obtained per 250 mL bacterial culture.
Preparations of FLAGTgCKIα and FLAGTgCKIβ were purified further on a SMART system FPLC 0.1 mL MonoQ anion exchange column (Pharmacia; New York, N.Y.) equilibrated in buffer A (50 mM Hepes, pH 7.4, 10% glycerol, 1 mM DTT) at room temperature. Samples of FLAG-affinity purified enzyme (10-100 μg) were syringe-passed through a 0.22 μm (pore-size) filter before loading on the column. A linear salt gradient was applied (0-500 mM in 3 mL at 100 μl/min) and 100 μl fractions were collected and analyzed by SDS-PAGE and for CKI activity. Fractions with peak activity were retained for further analysis. The degree of purity of the partially purified FLAGTgCKIα was estimated by densitometry of silver stained SDS-PAGE gels. A recombinant rat CKIδ enzyme used for control purposes was obtained from New England Biolabs.

[6] = molecular target: T2, TgCDPK1 (Toxoplasma gondii, UniProt Q9BJF5); assay: CDPK assay with Syntide-2, T. gondii CDPK1; format: biochemical; settings: read-out: IC50 against the CDPK1 enzyme
T2 construct: The TgCDPK1 open reading frame was amplified by PCR from a Toxoplasma cDNA library; made in house
Protocol: as §5, §3
Purification of recombinant TgCDPK1 and TgPKG—The TgCDPK1 open reading frame was amplified by PCR from a Toxoplasma cDNA library, using primers based on the published sequence (Kieschnick et al., 2001, supra): sense primer, […] (SEQ ID NO:44); and, antisense primer, […] (SEQ ID NO:45). A C-terminal FLAG epitope tag was appended to the TgCDPK1 open reading frame by an additional round of PCR amplification (KOD polymerase) and the resulting DNA fragment was sub-cloned into a tubulin promoter expression vector (Donald and Liberator, 2002, supra). […]

[7] = molecular target: T1, TgCKIα; assay: Casein kinase assay, TgCKIα (recombinant FLAGTgCKIα or partially purified native); format: biochemical; design: Vmax(app), FLAGTgCKIα; other: substrate titration, 2 μM ATP; Km(app), FLAGTgCKIα; settings: substrate titration, 2 μM ATP; for Km: read-out: Km(app), FLAGTgCKIα
Protocol: as §2, §3
as §6, with “Enzyme was eluted with 5 mL of 0.4 mg/mL FLAG peptide (Sigma) in NaCl-free wash buffer and concentrated with a centrifuge filtration unit (Amicon Ultra®, 10 kDa cut-off, Millipore).” left out, “Using this procedure, and SDS-PAGE analysis, the yield of FLAGTgCKIβ was estimated as ˜200 μg of enzyme with >90% purity. Purification of FLAGTgCKIα was much less efficient with only about 1 μg of ˜10% pure enzyme obtained per 250 mL bacterial culture.” left out
as §4

[8] = molecular target: T1, TgCKIα; assay: as above; format: biochemical; design: Km(app), native TgCKIα; other: substrate titration, 2 μM ATP; IC50, nativeTgCKIα; other: partially purified native enzyme from Toxoplasma tachyzoites; sensitivity of native TgCKIα phosphopeptide kinase activity (HiTrapQ fractions 5-9); other: 0.2 μM hymenialdisine or 1; settings: substrate titration, 2 μM ATP; read-out: Km(app), native TgCKIα
Protocol: as §2, §3
as §6, with “Enzyme was eluted with 5 mL of 0.4 mg/mL FLAG peptide (Sigma) in NaCl-free wash buffer and concentrated with a centrifuge filtration unit (Amicon Ultra®, 10 kDa cut-off, Millipore).” left out, “Using this procedure, and SDS-PAGE analysis, the yield of FLAGTgCKIβ was estimated as ˜200 μg of enzyme with >90% purity. Purification of FLAGTgCKIα was much less efficient with only about 1 μg of ˜10% pure enzyme obtained per 250 mL bacterial culture.” left out
as §4

T1 sequence (Q6QNM1 whole entry, looked up): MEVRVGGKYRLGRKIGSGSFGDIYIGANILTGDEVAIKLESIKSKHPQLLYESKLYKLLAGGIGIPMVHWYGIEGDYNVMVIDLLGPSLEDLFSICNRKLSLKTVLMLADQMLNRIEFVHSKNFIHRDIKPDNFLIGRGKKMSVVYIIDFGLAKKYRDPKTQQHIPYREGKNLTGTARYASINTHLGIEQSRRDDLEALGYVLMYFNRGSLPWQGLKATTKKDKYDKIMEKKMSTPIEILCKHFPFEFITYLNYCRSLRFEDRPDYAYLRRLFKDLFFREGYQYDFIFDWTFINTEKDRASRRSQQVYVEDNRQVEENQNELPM
Sequence of TgCKIβ (Q6QNM0 entry or part of it): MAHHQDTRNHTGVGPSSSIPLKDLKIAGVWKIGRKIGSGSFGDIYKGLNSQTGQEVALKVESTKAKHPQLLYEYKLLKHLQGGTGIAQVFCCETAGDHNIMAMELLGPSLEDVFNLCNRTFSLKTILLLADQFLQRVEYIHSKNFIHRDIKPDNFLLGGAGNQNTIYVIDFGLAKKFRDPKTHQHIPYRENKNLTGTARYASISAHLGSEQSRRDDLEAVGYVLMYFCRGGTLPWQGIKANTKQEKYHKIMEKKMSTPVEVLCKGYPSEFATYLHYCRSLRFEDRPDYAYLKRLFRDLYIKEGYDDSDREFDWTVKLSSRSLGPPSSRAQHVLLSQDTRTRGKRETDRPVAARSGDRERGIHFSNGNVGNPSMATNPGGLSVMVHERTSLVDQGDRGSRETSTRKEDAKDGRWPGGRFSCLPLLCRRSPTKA
T2 sequence (Q9BJF5 entry or part of it): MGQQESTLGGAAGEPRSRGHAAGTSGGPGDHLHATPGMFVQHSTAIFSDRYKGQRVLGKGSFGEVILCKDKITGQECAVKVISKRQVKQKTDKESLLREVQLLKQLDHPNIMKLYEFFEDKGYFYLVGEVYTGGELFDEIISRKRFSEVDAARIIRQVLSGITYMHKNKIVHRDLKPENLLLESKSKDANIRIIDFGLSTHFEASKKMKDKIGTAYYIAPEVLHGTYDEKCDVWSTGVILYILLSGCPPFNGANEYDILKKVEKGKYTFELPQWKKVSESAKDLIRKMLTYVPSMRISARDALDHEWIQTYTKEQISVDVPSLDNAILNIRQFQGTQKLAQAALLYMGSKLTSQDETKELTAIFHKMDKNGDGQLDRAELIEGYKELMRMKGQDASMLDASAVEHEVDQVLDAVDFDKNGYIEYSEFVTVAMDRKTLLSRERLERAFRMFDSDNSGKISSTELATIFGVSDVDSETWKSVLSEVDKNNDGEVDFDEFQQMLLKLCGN
Sequence of EtCKIα (Q6QNL9 whole entry): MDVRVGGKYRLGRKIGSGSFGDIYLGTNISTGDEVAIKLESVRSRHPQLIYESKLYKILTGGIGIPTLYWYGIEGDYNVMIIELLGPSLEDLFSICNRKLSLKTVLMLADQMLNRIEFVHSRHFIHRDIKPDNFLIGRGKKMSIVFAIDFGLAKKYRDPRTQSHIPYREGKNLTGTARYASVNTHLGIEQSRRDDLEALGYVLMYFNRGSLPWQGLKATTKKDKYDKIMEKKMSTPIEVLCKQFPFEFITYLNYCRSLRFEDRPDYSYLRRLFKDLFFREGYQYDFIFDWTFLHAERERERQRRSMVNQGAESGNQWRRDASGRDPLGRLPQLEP

Molecule: Cn1cnc2c(NCc3ccccc3)nc(NCCO)nc21 [olomoucine]
- activity against cultured T. gondii parasites [1]: no activity

Molecule: CN1CCC(c2cc(-c3ccncc3)c(-c3ccc(F)cc3)[nH]2)CC1 [Compound 1]
- IC50 ([2]; Toxoplasma gondii, HFF): 200 nM
- IC50 ([1]; infected HFF cell monolayers, 36-48 hours): 200 nM

Molecule: CC[C@H](CO)Nc1nc(NCc2ccccc2)c2ncn(C(C)C)c2n1 [roscovitine]
- activity against T. gondii in the uracil uptake (whole cell) assay [2]: only mediocre activity
- activity against cultured T. gondii parasites [1]: mediocre activity

Molecule: CC(C)[C@H](CO)Nc1nc(Nc2cc(N)cc(Cl)c2)c2ncn(C(C)C)c2n1 [aminopurvalanol]
- IC50 [3]: 40 to 60 nM
- activity against / sensitivity of EtCKIα [4]: good activity
- IC50 ([1]; Toxoplasma gondii, HFF): 375 nM

Molecule: CC(C)[C@H](CO)Nc1nc(Nc2cccc(Cl)c2)c2ncn(C(C)C)c2n1 [purvalanol A]
- activity against T. gondii in the uracil uptake (whole cell) assay [2]: only mediocre activity
- activity against cultured T. gondii parasites [1]: mediocre activity

Molecule: RRKDLHDDEEDEAMSITA [CKI peptide]
- Vmax(app), FLAGTgCKIβ [5]: 8 nmol/min/mg
- Km [5]: 15 µM

Molecule: indirubin-3′-monoxime
- IC50 ([3]; recombinant or native forms of TgCKIα, read-out: IC50 against TgCKIα): 172 nM
- IC50 [6]: 175 nM

B1: β-casein: β-casein from Sigma, kinase substrate (protein)
chain: RELEELNVPGEIVESLSSSEESITRINKKIEKFQSEEQQQTEDELQDKIHPFAQTQSLVYPFPGPIPNSLPQNIPPLTQTPVVVPPFLQPEVMGVSKVKEAMAPKHKEMPFPKYPVEPFTESQSLTLTDVENLHLPLPLLQSWMHQPHQPLPPTVMFPPQSVLSLSQSKVLPVPQKAVPYPQRDMPIQAFLLYQEPVLGPVRGPFPIIV
- Vmax(app), FLAGTgCKIβ [5]: 16 nmol/min/mg
- Km [5]: 12 µM
- Vmax(app), FLAGTgCKIα [7]: 8 nmol/min/mg
- Km [7]: 30 µM
- Km [8]: 13 µM

B2: α-casein: partially dephosphorylated α-casein from Sigma, kinase substrate (protein)
chain: RPKHPIKHQGLPQEVLNENLLRFFVAPFPEVFGKEKVNELSKDIGSESTEDQAMEDIKQMEAESISSSEEIVPNSVEQKHIQKEDVPSERYLGYLEQLLRLKKYKVPQLEIVPNSAEERLHSMKEGIHAQQKEPMIGVNQELAYFYPELFRQFYQLDAYPSGAWYYVPLGTQYTDAPSFSDIPNPIGSENSEKTTMPLW
- Vmax(app), FLAGTgCKIβ [5]: 12 nmol/min/mg
- Km [5]: 5 µM
- Vmax(app), FLAGTgCKIα [7]: 8 nmol/min/mg
- Km [7]: 4 µM
- Km [8]: 3 µM
